Source: US20260176320A1, “MODULATORS OF G-PROTEIN COUPLED RECEPTORS” (priority 2018, published 2026)
pEC50: −log10 of the molar value. Like-named read-outs stand apart in the source and are kept apart here. Square brackets hold non-standard residues; d marks the D form. Peptide text beside a SMILES is read from it. * marks the point of attachment. X1 = O=C(CSCC(=O)*)NCCN1C(=O)c2ccccc2C1=O; Aib = CC(C)(N)C(=O)O

Key:
Format in all cases: cell-based
GLP-1R [1] = biological target: T1, GLP-1R (Homo sapiens, UniProt P43220); assay: HitHunter cAMP assay (GLP-1R); details: cAMP; for Emax: read-out: (Emax) GLP-1R
In short: (§1)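 cAMP, luminescence read: agonist 22-pt 2× dilution in DMSO, duplicate, 30 min RT on 10,000 cells/well in 1×HBSS/10 mM HEPES/625 μM IBMX/0.2% BSA; anti-cAMP reagent 1 h RT dark, then O/N RT dark before read.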

GLP-1R [2] = biological target: T1, GLP-1R; assay: PathHunter β-arrestin assay
In short: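 Luminescence read-out of β-arrestin recruitment (enzyme-fragment complementation detection, 3 h at room temperature in the dark) after 90 min agonist stimulation at 37 °C. Agonists tested as 22-point 2× serial dilutions in duplicate, in medium containing 0.2% BSA.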

GIP-R = biological target: T2, GIP-R (Homo sapiens, UniProt P48546); assay: HitHunter cAMP assay (GIP-R); details: cAMP; for Emax: read-out: (Emax) GIP-R
T2 sequence (P48546 22-466): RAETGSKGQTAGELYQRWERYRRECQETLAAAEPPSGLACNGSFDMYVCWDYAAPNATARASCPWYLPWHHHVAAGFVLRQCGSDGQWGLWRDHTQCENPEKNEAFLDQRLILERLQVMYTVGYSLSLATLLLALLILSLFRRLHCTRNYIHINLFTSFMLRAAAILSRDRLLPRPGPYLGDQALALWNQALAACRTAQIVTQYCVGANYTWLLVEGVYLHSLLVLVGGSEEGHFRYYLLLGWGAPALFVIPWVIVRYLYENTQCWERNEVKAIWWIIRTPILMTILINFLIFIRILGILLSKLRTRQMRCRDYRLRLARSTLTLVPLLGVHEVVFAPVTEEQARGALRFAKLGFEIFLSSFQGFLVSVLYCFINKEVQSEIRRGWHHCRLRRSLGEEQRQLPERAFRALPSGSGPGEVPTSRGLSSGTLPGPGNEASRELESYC
In short: as §1

[3] = Table 3, read-out: EC50 GLP-1R/nM
[4] = Table 3A, read-out: EC50 GLP-1R/nM
[5] = PathHunter β-arrestin assay, read-out: β-arrestin activity EC50
[6] = Table 3, read-out: EC50 GIP-R/nM
[7] = Table 3A, read-out: EC50 GIP-R/nM

T1 sequence (P43220 24-463): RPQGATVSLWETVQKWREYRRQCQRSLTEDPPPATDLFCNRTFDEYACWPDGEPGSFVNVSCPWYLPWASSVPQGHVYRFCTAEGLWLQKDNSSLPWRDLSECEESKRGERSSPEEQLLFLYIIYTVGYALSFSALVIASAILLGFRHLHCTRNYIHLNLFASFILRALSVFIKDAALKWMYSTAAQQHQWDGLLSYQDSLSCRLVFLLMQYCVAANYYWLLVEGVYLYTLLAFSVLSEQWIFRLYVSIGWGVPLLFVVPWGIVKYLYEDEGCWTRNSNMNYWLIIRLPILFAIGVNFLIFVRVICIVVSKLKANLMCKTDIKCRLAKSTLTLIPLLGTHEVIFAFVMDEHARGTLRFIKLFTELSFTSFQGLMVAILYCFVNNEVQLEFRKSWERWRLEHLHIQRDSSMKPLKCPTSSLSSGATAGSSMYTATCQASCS

## CC[C@H](C)[C@H](NC(=O)[C@H](CO)NC(=O)[C@H](Cc1ccc(O)cc1)NC(=O)[C@H](CC(=O)O)NC(=O)[C@H](CO)NC(=O)[C@@H](NC(=O)[C@H](Cc1ccccc1)NC(=O)[C@@H](NC(=O)CNC(=O)[C@H](CCC(=O)O)NC(=O)CCNC(=O)NCCN1C(=O)CSC1=O)[C@@H](C)O)[C@@H](C)O)C(=O)N[C@@H](Cc1ccc(O)cc1)C(=O)N[C@@H](CC(C)C)C(=O)N[C@@H](CC(=O)O)C(=O)N[C@@H](CCCCN)C(=O)N[C@@H](CCC(N)=O)C(=O)N[C@@H](C)C(=O)N[C@@H](C)C(=O)NC(C)(C)C(=O)N[C@@H](CCC(=O)O)C(=O)N[C@@H](Cc1ccccc1)C(=O)N[C@H](C(=O)N[C@@H](CC(N)=O)C(=O)N[C@@H](Cc1c[nH]c2ccccc12)C(=O)N[C@@H](CC(C)C)C(=O)N[C@@H](CC(C)C)C(=O)N[C@@H](C)C(=O)NCC(=O)NCC(=O)N1CCC[C@H]1C(=O)N[C@@H](CO)C(=O)N[C@@H](CO)C(=O)NCC(=O)N[C@@H](C)C(=O)N1CCC[C@H]1C(=O)N1CCC[C@H]1C(=O)N1CCC[C@H]1C(=O)N[C@@H](CO)C(=O)N[C@@H](CCCCN)C(N)=O)C(C)C [Compound 148]
GLP-1R [1]; Table 3
  Emax: 99%
GLP-1R [1]; [3]
  EC50: 0.1 to 1 nM
GLP-1R [1]; Table 3A
  Emax: 99%
GLP-1R [1]; [4]
  EC50: 0.1 to 1 nM
GLP-1R [2]; [5]
  pEC50: < 6.00
GIP-R; Table 3
  Emax: 64 to 67%
GIP-R; [6]
  EC50: 1 to 10 nM
GIP-R; Table 3A
  Emax: 64 to 67%
GIP-R; [7]
  EC50: 1 to 10 nM

## CC[C@H](C)[C@H](NC(=O)[C@H](CO)NC(=O)[C@H](CC(C)C)NC(=O)[C@H](CC(=O)O)NC(=O)[C@H](CO)NC(=O)[C@@H](NC(=O)[C@H](Cc1ccccc1)NC(=O)[C@@H](NC(=O)CNC(=O)[C@H](CCC(=O)O)NC(=O)CSCC(=O)NCCN1C(=O)c2ccccc2C1=O)[C@@H](C)O)[C@@H](C)O)C(=O)N[C@@H](Cc1ccc(O)cc1)C(=O)N[C@@H](CC(C)C)C(=O)N[C@@H](CC(=O)O)C(=O)N[C@@H](CCCCN)C(=O)N[C@@H](CCC(N)=O)C(=O)N[C@@H](C)C(=O)N[C@@H](C)C(=O)NC(C)(C)C(=O)N[C@@H](CCC(=O)O)C(=O)N[C@@H](Cc1ccccc1)C(=O)N[C@H](C(=O)N[C@@H](CC(N)=O)C(=O)N[C@@H](Cc1c[nH]c2ccccc12)C(=O)N[C@@H](CC(C)C)C(=O)N[C@@H](CC(C)C)C(=O)N[C@@H](C)C(=O)NCC(=O)NCC(=O)N1CCC[C@H]1C(=O)N[C@@H](CO)C(=O)N[C@@H](CO)C(=O)NCC(=O)N[C@@H](C)C(=O)N1CCC[C@H]1C(=O)N1CCC[C@H]1C(=O)N1CCC[C@H]1C(=O)N[C@@H](CO)C(=O)N[C@@H](CCCCN)C(N)=O)C(C)C [Compound 151] (X1-EGTFTSDLSIYLDKQAA[Aib]EFVNWLLAGGPSSGAPPPSK-NH2)
GLP-1R [1]; EC50 GLP-1R/nM, Table 3
  EC50: 1 to 10 nM
GLP-1R [1]; EC50 GLP-1R/nM, Table 3A
  EC50: 1 to 10 nM
GLP-1R [1]; Table 3
  Emax: 103 to 107%
GLP-1R [1]; Table 3A
  Emax: 103 to 107%
GLP-1R [2]
  pEC50: < 6.00
GIP-R; EC50 GIP-R/nM, Table 3
  EC50: 0.1 to 1 nM
GIP-R; EC50 GIP-R/nM, Table 3A
  EC50: 0.1 to 1 nM
GIP-R; Table 3
  Emax: 117 to 119%
GIP-R; Table 3A
  Emax: 117 to 119%

## CC[C@H](C)[C@H](NC(=O)[C@H](CO)NC(=O)[C@H](Cc1ccc(O)cc1)NC(=O)[C@H](CC(=O)O)NC(=O)[C@H](CO)NC(=O)[C@@H](NC(=O)[C@H](Cc1ccccc1)NC(=O)[C@@H](NC(=O)CNC(=O)[C@H](CCC(=O)O)NC(=O)CSCC(=O)NCCN1Cc2ccccc2C1=O)[C@@H](C)O)[C@@H](C)O)C(=O)N[C@@H](Cc1ccc(O)cc1)C(=O)N[C@@H](CC(C)C)C(=O)N[C@@H](CC(=O)O)C(=O)N[C@@H](CCCCN)C(=O)N[C@@H](CCC(N)=O)C(=O)N[C@@H](C)C(=O)N[C@@H](C)C(=O)NC(C)(C)C(=O)N[C@@H](CCC(=O)O)C(=O)N[C@@H](Cc1ccccc1)C(=O)N[C@H](C(=O)N[C@@H](CC(N)=O)C(=O)N[C@@H](Cc1c[nH]c2ccccc12)C(=O)N[C@@H](CC(C)C)C(=O)N[C@@H](CC(C)C)C(=O)N[C@@H](C)C(=O)NCC(=O)NCC(=O)N1CCC[C@H]1C(=O)N[C@@H](CO)C(=O)N[C@@H](CO)C(=O)NCC(=O)N[C@@H](C)C(=O)N1CCC[C@H]1C(=O)N1CCC[C@H]1C(=O)N1CCC[C@H]1C(=O)N[C@@H](CO)C(=O)N[C@@H](CCCCN)C(N)=O)C(C)C [Compound 152]
GLP-1R [1]; EC50 GLP-1R/nM, Table 3
  EC50: 10 to 100 nM
GLP-1R [1]; EC50 GLP-1R/nM, Table 3A
  EC50: 10 to 100 nM
GLP-1R [1]; Table 3
  Emax: 85%
GLP-1R [1]; Table 3A
  Emax: 85%
GLP-1R [2]
  pEC50: < 6.00
GIP-R; EC50 GIP-R/nM, Table 3
  EC50: 1 to 10 nM
GIP-R; EC50 GIP-R/nM, Table 3A
  EC50: 1 to 10 nM
GIP-R; Table 3
  Emax: 103%
GIP-R; Table 3A
  Emax: 103%

## CC[C@H](C)[C@H](NC(=O)[C@H](CO)NC(=O)[C@H](Cc1ccc(O)cc1)NC(=O)[C@H](CC(=O)O)NC(=O)[C@H](CO)NC(=O)[C@@H](NC(=O)[C@H](Cc1ccccc1)NC(=O)[C@@H](NC(=O)CNC(=O)[C@H](CCC(=O)O)NC(=O)C(C)(C)C(=O)NCCN1C(=O)CSC1=O)[C@@H](C)O)[C@@H](C)O)C(=O)N[C@@H](Cc1ccc(O)cc1)C(=O)N[C@@H](CC(C)C)C(=O)N[C@@H](CC(=O)O)C(=O)N[C@@H](CCCCN)C(=O)N[C@@H](CCC(N)=O)C(=O)N[C@@H](C)C(=O)N[C@@H](C)C(=O)NC(C)(C)C(=O)N[C@@H](CCC(=O)O)C(=O)N[C@@H](Cc1ccccc1)C(=O)N[C@H](C(=O)N[C@@H](CC(N)=O)C(=O)N[C@@H](Cc1c[nH]c2ccccc12)C(=O)N[C@@H](CC(C)C)C(=O)N[C@@H](CC(C)C)C(=O)N[C@@H](C)C(=O)NCC(=O)NCC(=O)N1CCC[C@H]1C(=O)N[C@@H](CO)C(=O)N[C@@H](CO)C(=O)NCC(=O)N[C@@H](C)C(=O)N1CCC[C@H]1C(=O)N1CCC[C@H]1C(=O)N1CCC[C@H]1C(=O)N[C@@H](CO)C(=O)N[C@@H](CCCCN)C(N)=O)C(C)C [Compound 153]
GLP-1R [1]; Table 3
  Emax: 107%
GLP-1R [1]; [3]
  EC50: < 0.1 nM
GLP-1R [1]; Table 3A
  Emax: 107%
GLP-1R [1]; [4]
  EC50: < 0.1 nM
GLP-1R [2]; [5]
  pEC50: 6.00 to 8.00
GIP-R; Table 3
  Emax: 75 to 85%
GIP-R; [6]
  EC50: 10 to 100 nM
GIP-R; Table 3A
  Emax: 75 to 85%
GIP-R; [7]
  EC50: 10 to 100 nM

## CC[C@H](C)[C@H](NC(=O)[C@H](CO)NC(=O)[C@H](Cc1ccc(O)cc1)NC(=O)[C@H](CC(=O)O)NC(=O)[C@H](CO)NC(=O)[C@@H](NC(=O)[C@H](Cc1ccccc1)NC(=O)[C@@H](NC(=O)CNC(=O)[C@H](CCC(=O)O)NC(=O)CCCNC(=O)CCN1C(=O)c2ccccc2C1=O)[C@@H](C)O)[C@@H](C)O)C(=O)N[C@@H](Cc1ccc(O)cc1)C(=O)N[C@@H](CC(C)C)C(=O)N[C@@H](CC(=O)O)C(=O)N[C@@H](CCCCN)C(=O)N[C@@H](CCC(N)=O)C(=O)N[C@@H](C)C(=O)N[C@@H](C)C(=O)NC(C)(C)C(=O)N[C@@H](CCC(=O)O)C(=O)N[C@@H](Cc1ccccc1)C(=O)N[C@H](C(=O)N[C@@H](CC(N)=O)C(=O)N[C@@H](Cc1c[nH]c2ccccc12)C(=O)N[C@@H](CC(C)C)C(=O)N[C@@H](CC(C)C)C(=O)N[C@@H](C)C(=O)NCC(=O)NCC(=O)N1CCC[C@H]1C(=O)N[C@@H](CO)C(=O)N[C@@H](CO)C(=O)NCC(=O)N[C@@H](C)C(=O)N1CCC[C@H]1C(=O)N1CCC[C@H]1C(=O)N1CCC[C@H]1C(=O)N[C@@H](CO)C(=O)N[C@@H](CCCCN)C(N)=O)C(C)C [Compound 154]
GLP-1R [1]; Table 3
  Emax: 80%
GLP-1R [1]; [3]
  EC50: 1 to 10 nM
GLP-1R [1]; Table 3A
  Emax: 80%
GLP-1R [1]; [4]
  EC50: 1 to 10 nM
GLP-1R [2]; [5]
  pEC50: < 6.00
GIP-R; Table 3
  Emax: 78%
GIP-R; [6]
  EC50: 1 to 10 nM
GIP-R; Table 3A
  Emax: 78%
GIP-R; [7]
  EC50: 1 to 10 nM

## CCCCCCCCCCCCCCCC(=O)N[C@@H](CCC(=O)NCCCC[C@H](NC(=O)[C@H](CO)NC(=O)[C@@H]1CCCN1C(=O)[C@@H]1CCCN1C(=O)[C@@H]1CCCN1C(=O)[C@H](C)NC(=O)CNC(=O)[C@H](CO)NC(=O)[C@H](CO)NC(=O)[C@@H]1CCCN1C(=O)CNC(=O)CNC(=O)[C@H](C)NC(=O)[C@H](CC(C)C)NC(=O)[C@H](CC(C)C)NC(=O)[C@H](Cc1c[nH]c2ccccc12)NC(=O)[C@H](CC(N)=O)NC(=O)[C@@H](NC(=O)[C@H](Cc1ccccc1)NC(=O)[C@H](CCC(=O)O)NC(=O)C(C)(C)NC(=O)[C@H](C)NC(=O)[C@H](C)NC(=O)[C@H](CCC(N)=O)NC(=O)[C@H](CCCCN)NC(=O)[C@H](CC(=O)O)NC(=O)[C@H](CC(C)C)NC(=O)[C@H](Cc1ccc(O)cc1)NC(=O)[C@@H](NC(=O)[C@H](CO)NC(=O)[C@H](Cc1ccc(O)cc1)NC(=O)[C@H](CC(=O)O)NC(=O)[C@H](CO)NC(=O)[C@@H](NC(=O)[C@H](Cc1ccccc1)NC(=O)[C@@H](NC(=O)CNC(=O)[C@H](CCC(=O)O)NC(=O)CCCC(=O)NCCN1C(=O)CSC1=O)[C@@H](C)O)[C@@H](C)O)[C@@H](C)CC)C(C)C)C(N)=O)C(=O)O [Compound 155]
GLP-1R [1]; Table 3
  Emax: 102%
GLP-1R [1]; [3]
  EC50: 0.1 to 1 nM
GLP-1R [1]; Table 3A
  Emax: 102%
GLP-1R [1]; [4]
  EC50: 0.1 to 1 nM
GLP-1R [2]; [5]
  pEC50: < 6.00
GIP-R; Table 3
  Emax: 80%
GIP-R; [6]
  EC50: 1 to 10 nM
GIP-R; Table 3A
  Emax: 80%
GIP-R; [7]
  EC50: 1 to 10 nM
